Laboratory results published in PubChem BioAssay (NCI).
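Protocol summary: plate cells (96-well), add compound at 5 concentrations, incubate 48 h, interpolate endpoints linearly. GI50: concentration for 50% inhibition of growth. TGI is the concentration that stops growth completely.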

What was measured:
Test in all cases: inhibition of tumour cell growth, NCI panel, 48 h
786-0 renal = test system: 786-0 renal
A549 NSCLC = test system: A549 NSCLC
ACHN renal = test system: ACHN renal
BT-549 breast = test system: BT-549 breast
CAKI-1 renal = test system: CAKI-1 renal
CCRF-CEM leukemia = test system: CCRF-CEM leukemia
COLO 205 colon = test system: COLO 205 colon
DU-145 prostate = test system: DU-145 prostate
EKVX NSCLC = test system: EKVX NSCLC
HCC-2998 colon = test system: HCC-2998 colon
HCT-116 colon = test system: HCT-116 colon
HCT-15 colon = test system: HCT-15 colon
HL-60(TB) leukemia = test system: HL-60(TB) leukemia
HOP-62 NSCLC = test system: HOP-62 NSCLC
HOP-92 NSCLC = test system: HOP-92 NSCLC
HS 578T breast = test system: HS 578T breast
HT29 colon = test system: HT29 colon
IGROV1 ovarian = test system: IGROV1 ovarian
K-562 leukemia = test system: K-562 leukemia
KM12 colon = test system: KM12 colon
LOX IMVI melanoma = test system: LOX IMVI melanoma
M14 melanoma = test system: M14 melanoma
MCF7 breast = test system: MCF7 breast
MDA-MB-231 breast = test system: MDA-MB-231 breast
MDA-MB-435 = test system: MDA-MB-435
MOLT-4 leukemia = test system: MOLT-4 leukemia
NCI-H226 lung = test system: NCI-H226 lung
NCI-H23 lung = test system: NCI-H23 lung
NCI-H460 lung = test system: NCI-H460 lung
NCI-H522 lung = test system: NCI-H522 lung
NCI/ADR-RES ovarian = test system: NCI/ADR-RES ovarian
OVCAR-3 ovarian = test system: OVCAR-3 ovarian
OVCAR-4 ovarian = test system: OVCAR-4 ovarian
OVCAR-5 ovarian = test system: OVCAR-5 ovarian
OVCAR-8 ovarian = test system: OVCAR-8 ovarian
PC-3 prostate = test system: PC-3 prostate
RPMI-8226 leukemia = test system: RPMI-8226 leukemia
RXF 393 renal = test system: RXF 393 renal
SF-268 CNS = test system: SF-268 CNS
SF-295 CNS = test system: SF-295 CNS
SF-539 CNS = test system: SF-539 CNS
SK-MEL-2 melanoma = test system: SK-MEL-2 melanoma
SK-MEL-28 melanoma = test system: SK-MEL-28 melanoma
SK-MEL-5 melanoma = test system: SK-MEL-5 melanoma
SK-OV-3 ovarian = test system: SK-OV-3 ovarian
SN12C renal = test system: SN12C renal
SNB-19 CNS = test system: SNB-19 CNS
SNB-75 CNS = test system: SNB-75 CNS
SR leukemia = test system: SR leukemia
SW-620 colon = test system: SW-620 colon
T-47D breast = test system: T-47D breast
TK-10 renal = test system: TK-10 renal
U251 CNS = test system: U251 CNS
UACC-257 melanoma = test system: UACC-257 melanoma
UACC-62 melanoma = test system: UACC-62 melanoma
UO-31 renal = test system: UO-31 renal

CN(C)C1CCN(C(=O)c2ccc(NC(=O)Nc3ccc(-c4nc(N5CCOCC5)c5cccn5n4)cc3)cc2)CC1
GI50 (786-0 renal): 0.31 µM
TGI (786-0 renal): 6.36 µM
GI50 (A549 NSCLC): 0.0649 µM
TGI (A549 NSCLC): 12.6 µM
GI50 (ACHN renal): 1.05 µM
TGI (ACHN renal): 13 µM
GI50 (BT-549 breast): 0.177 µM
TGI (BT-549 breast): 2.25 µM
GI50 (CAKI-1 renal): 3.39 µM
TGI (CAKI-1 renal): 20.8 µM
GI50 (CCRF-CEM leukemia): 0.0483 µM
TGI (CCRF-CEM leukemia): 4.69 µM
GI50 (COLO 205 colon): 0.0535 µM
TGI (COLO 205 colon): 1.42 µM
GI50 (DU-145 prostate): 0.0335 µM
TGI (DU-145 prostate): 12.6 µM
GI50 (EKVX NSCLC): 0.0702 µM
TGI (EKVX NSCLC): 3.46 µM
GI50 (HCC-2998 colon): 0.043 µM
TGI (HCC-2998 colon): 5.86 µM
GI50 (HCT-116 colon): 0.0705 µM
TGI (HCT-116 colon): 20 µM
GI50 (HCT-15 colon): 2.77 µM
TGI (HCT-15 colon): > 50.7 µM
GI50 (HL-60(TB) leukemia): 0.105 µM
TGI (HL-60(TB) leukemia): 1.76 µM
GI50 (HOP-62 NSCLC): 0.0573 µM
TGI (HOP-62 NSCLC): 2.82 µM
GI50 (HOP-92 NSCLC): < 0.015 µM
TGI (HOP-92 NSCLC): 0.102 µM
GI50 (HS 578T breast): 0.0192 µM
TGI (HS 578T breast): 0.0926 µM
GI50 (HT29 colon): 0.0558 µM
TGI (HT29 colon): 3.78 µM
GI50 (IGROV1 ovarian): 0.0302 µM
TGI (IGROV1 ovarian): 0.211 µM
GI50 (K-562 leukemia): 0.224 µM
TGI (K-562 leukemia): 9.66 µM
GI50 (KM12 colon): 0.155 µM
TGI (KM12 colon): 7.69 µM
GI50 (LOX IMVI melanoma): 0.0267 µM
TGI (LOX IMVI melanoma): 1.19 µM
GI50 (M14 melanoma): 0.281 µM
TGI (M14 melanoma): 9.15 µM
TGI (MCF7 breast): 1.51 µM
GI50 (MDA-MB-231 breast): 0.0491 µM
TGI (MDA-MB-231 breast): 11.1 µM
GI50 (MDA-MB-435): 0.0403 µM
TGI (MDA-MB-435): 0.492 µM
GI50 (MOLT-4 leukemia): 0.0457 µM
TGI (MOLT-4 leukemia): 2.52 µM
GI50 (NCI-H226 lung): 0.0435 µM
TGI (NCI-H226 lung): 2.99 µM
GI50 (NCI-H23 lung): 0.102 µM
TGI (NCI-H23 lung): 17.7 µM
GI50 (NCI-H460 lung): 0.0587 µM
TGI (NCI-H460 lung): 13.6 µM
GI50 (NCI-H522 lung): 0.0377 µM
TGI (NCI-H522 lung): 19.1 µM
GI50 (NCI/ADR-RES ovarian): 59.5 µM
TGI (NCI/ADR-RES ovarian): > 100 µM
GI50 (OVCAR-3 ovarian): 0.0412 µM
TGI (OVCAR-3 ovarian): 1.12 µM
GI50 (OVCAR-4 ovarian): 0.0137 µM
TGI (OVCAR-4 ovarian): 0.0721 µM
GI50 (OVCAR-5 ovarian): 0.0521 µM
TGI (OVCAR-5 ovarian): 16.1 µM
GI50 (OVCAR-8 ovarian): 0.116 µM
TGI (OVCAR-8 ovarian): 15.5 µM
GI50 (PC-3 prostate): 0.0397 µM
TGI (PC-3 prostate): 2.1 µM
GI50 (RPMI-8226 leukemia): 0.275 µM
TGI (RPMI-8226 leukemia): 1.88 µM
GI50 (RXF 393 renal): 0.088 µM
TGI (RXF 393 renal): 0.604 µM
GI50 (SF-268 CNS): 0.0453 µM
TGI (SF-268 CNS): 13.9 µM
GI50 (SF-295 CNS): 0.0719 µM
TGI (SF-295 CNS): 0.512 µM
GI50 (SF-539 CNS): 0.0453 µM
TGI (SF-539 CNS): 0.406 µM
GI50 (SK-MEL-2 melanoma): 0.0833 µM
TGI (SK-MEL-2 melanoma): 1.43 µM
GI50 (SK-MEL-28 melanoma): 0.0724 µM
TGI (SK-MEL-28 melanoma): 0.849 µM
GI50 (SK-MEL-5 melanoma): 0.153 µM
TGI (SK-MEL-5 melanoma): 0.662 µM
GI50 (SK-OV-3 ovarian): 0.0377 µM
TGI (SK-OV-3 ovarian): 0.252 µM
GI50 (SN12C renal): 0.0365 µM
TGI (SN12C renal): 14.7 µM
GI50 (SNB-19 CNS): 0.0403 µM
TGI (SNB-19 CNS): 6.22 µM
GI50 (SNB-75 CNS): 0.0138 µM
TGI (SNB-75 CNS): 0.0711 µM
GI50 (SR leukemia): 0.0562 µM
TGI (SR leukemia): > 54 µM
GI50 (SW-620 colon): 0.128 µM
TGI (SW-620 colon): 11.8 µM
GI50 (T-47D breast): 0.0134 µM
TGI (T-47D breast): 0.0664 µM
GI50 (TK-10 renal): 0.393 µM
TGI (TK-10 renal): 3.84 µM
GI50 (U251 CNS): 0.0599 µM
TGI (U251 CNS): 14.4 µM
GI50 (UACC-257 melanoma): 0.204 µM
TGI (UACC-257 melanoma): 0.729 µM
GI50 (UACC-62 melanoma): 0.0444 µM
TGI (UACC-62 melanoma): 0.287 µM
GI50 (UO-31 renal): 1.15 µM
TGI (UO-31 renal): 10.1 µM
